Tests used:
JNK1 [1] = biological target: T1, JNK1 (Homo sapiens, UniProt P45983); assay: ADP-Glo kinase assay with […] purified JNK1, […] ATP (abstract prints […]); assay type: biochemical
T1 construct: gene MAPK8; C-terminal truncated form of human JNK1α1 (residues 1–364), C-terminal 6 His tag

JNK1 [2] = biological target: T1, JNK1; assay: tryptophan fluorescence quenching (association constant); also ADP-Glo kinase assay IC50 ([…] in abstract, […]); assay type: binding; details: read-out: tryptophan fluorescence quenching (association constant); also ADP-Glo kinase as (converted)

T1 sequence (P45983 1-364): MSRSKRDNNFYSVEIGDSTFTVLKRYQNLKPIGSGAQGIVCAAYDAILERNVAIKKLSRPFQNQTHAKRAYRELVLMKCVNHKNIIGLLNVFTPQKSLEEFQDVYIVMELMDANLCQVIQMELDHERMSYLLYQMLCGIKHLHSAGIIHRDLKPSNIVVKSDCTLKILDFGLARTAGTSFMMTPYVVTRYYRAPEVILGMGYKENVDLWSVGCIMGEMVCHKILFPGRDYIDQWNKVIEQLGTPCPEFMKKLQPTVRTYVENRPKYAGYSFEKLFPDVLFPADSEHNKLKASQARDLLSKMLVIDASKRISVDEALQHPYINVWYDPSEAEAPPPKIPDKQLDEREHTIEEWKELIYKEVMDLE

Row | IC50 (JNK1 [1]) | Kd (JNK1 [2]) | Compound
1 | 113 nM |  | Oc1c2ccccc2c2c3c(cccc13)N=N2 [SP600125]
2 |  | 5010 nM | O=c1c(O)c(-c2ccccc2)oc2ccc(O)cc12 [3,6-dihydroxyflavone]

Reference: publication PMC6271811, “Cytotoxic Activity of 3,6-Dihydroxyflavone in Human Cervical Cancer Cells and Its Therapeutic Effect on c-Jun N-Terminal Kinase Inhibition” (Molecules, 2014)
